Assay results from US6747038B2, “Phenanthridine derivatives and antitumoral medicaments containing phenanthridine” (priority 2000, dated 2004).
Structures can show the parent of a compound that is named as a salt.

Test system: panel of 12 human pathogenic tumour cell lines of six types of cancer
Assay: in vivo-hollow fiber assay of the National Cancer Institute
Conditions: for NCI criteria fulfilled: (a) total points higher than 20, (b) subcutaneous points higher than 8, (c) cell kill characteristics; for Points (sum) / Points (intraperitoneal) / Points (subcutaneous): NCI point system; for Points (sum): 2 points per administration giving at least 50% reduction of tumour cell growth, maximum 96, hollow fibers in nude mice, intraperitoneal plus subcutaneous, 4 doses at 24 h intervals, two concentrations; for Points (intraperitoneal): intraperitoneally implanted hollow fibers in nude mice; for Points (subcutaneous): subcutaneously implanted hollow fibers in nude mice; for Cell killing properties: vital tumour cell mass of at least one cell line less than the starting value after treatment
Method: In order to examine the pharmacological properties, these compounds (BP-7, BP-8, BP-D8) as well as 6-Amino-11-(2′,4′-dimethoxyphenyl)benzo[c]-phenanthridine perchlorate (BP-D3) [PCT/WO 97/14683] were examined in an “in vivo-hollow fiber assay” of the National Cancer Institute (NCI), Bethesda, Md., USA.
Compounds were tested against a panel of 12 human pathogenic tumour cell lines of six types of cancer (non-small cell lung cancer, melanoma, breast cancer, ovarian cancer, colon cancer, CNS cancer).
The cell lines were cultivated in polyvinylidenfluorine hollow fibers which are permeable to small molecules and which were implanted into nude mice. Three hollow fibers were implanted every animal intraperitoneally and subcutaneously which means three tumor cell lines could be examined in each animal in two physiological sites.
The animals were treated four times with a dose of the test substance with a time interval of 24 hours. For this purpose, every compound was administered at two concentrations. At the end of the treatment the hollow fibers were regained and the number of the vital tumour cells or rather of the protein biomass was determined photometrically by an MTT-Formazan-Assay in order to determine the inhibition of growth by the phenanthridines. Mice with prepaired tumour cell cultures in hollow fibers which were only treated by solvent served as control.
The evaluation of test results is based on a point system given by NCI.
Each administration of a test substance which leads to a reduction of the tumour cell growth of at least 50% is given a score of two points. The maximum number of points for one compound is therefore 96 points (12 cell lines*2 implantation sites*2 concentrations of the test substance*2 points). In addition for further specification the results on subcutaneously and intraperitoneally implanted hollow fibers are treated separately. There are three criteria given by NCI. A test substance in the “in vivo-hollow fiber assay” has to fulfill at least one criterion in order to be regarded as suitable for further tests:
(a) the total sum of the points from intraperitoneal and subcutaneous application must be higher than 20.
(b) The total sum of the points of the subcutaneous application must be higher than 8.
(c) After the treatment the vital tumour cell mass of at least one cell line must be less than the starting value (cell kill characteristics).

| Structure (SMILES) | NCI criteria fulfilled | Points (sum) | Points (intraperitoneal) | Points (subcutaneous) | Cell killing properties | activity in the in vivo-hollow fiber assay (compared with all tested phenanthridines) |
| --- | --- | --- | --- | --- | --- | --- |
| COc1ccc(-c2cc3ccccc3c3nc(N)c4ccccc4c23)c(OC)c1.[O-][Cl+3]([O-])([O-])O [BP-D3, 6-Amino-11-(2′,4′-dimethoxyphenyl)benzo[c]phenanthridine perchlorate, reference compound] | (c) only | 10 Points | 2 Points | 8 Points | Yes |  |
| COc1ccc(C2Cc3ccccc3-c3nc(N)c4ccccc4c32)c(OC)c1OC (stereo not drawn) [BP-8, 6-Amino-11,12dihydro-11-(2′,3′,4′-trimethoxyphenyl)benzo[c]-phenanthridine hydrochloride] | (b) and (c) | 20 Points | 10 Points | 10 Points | Yes |  |
| COc1cc(C2Cc3ccccc3-c3nc(N)c4ccccc4c32)cc(OC)c1OC (stereo not drawn) [BP-7, 6-Amino-11,12dihydro-11-(3′,4′,5′-trimethoxyphenyl)benzo[c]-phenanthridine hydrochloride] | (b) and (c) | 16 Points | 6 Points | 10 Points | Yes |  |
| COc1cc(-c2cc3ccccc3c3nc(N)c4ccccc4c23)cc(OC)c1OC [BP-D7, 6-Amino-11-(3′,4′,5′-trimethoxyphenyl)benzo[c]phenanthridine perchlorate] | a, b and c | 28 Points | 14 Points | 14 Points | Yes | highest activity |
